# Results published in US10206388B2, “Formulation component” (SYNGENTA LIMITED, priority 2011, dated 2019).
# What was measured:
# Format in all cases: in vivo
# [1] = system: Brachiaria platyphylla (BRAPL); assay: Glasshouse weed test, mesotrione with adjuvants; conditions: Table 10, Example 7: mesotrione 60 or 120 g/ha; adjuvant 0.2% v/v; Tetronic 1107 in spray tank; mean over two rates, three replicates, 7, 14 and 20 days
# Protocol: (§1) The aromatic ester Finsolv® TN (C12-C15 alkyl benzoate) was tested in a glasshouse against three weed species using the herbicide mesotrione. An agrochemical composition was prepared containing 0.2% v/v of the adjuvant in a track sprayer and was applied at a volume of 200 liters per hectare. Mesotrione was applied at either 60 or 120 grams of pesticide per hectare on weeds which had been grown to the 1.3 or 1.4 leaf stage. The weed species were Xanthium strumarium (XANST), Brachiaria platyphylla (BRAPL), and Digitaria sanguinalis (DIGSA). The commercially available surfactant Tetronic® 1107 was used in the spray tank at a concentration of 0.036 g/l alongside the lower concentration of mesotrione and at a concentration of 0.072 g/l at the higher concentration of mesotrione.
# (§2) Each spray test was replicated three times. The efficacy of the herbicide was assessed visually and expressed as a percentage of the leaf area killed. Samples were assessed at time periods of 7, 14 and 20 days following application. The results shown in Table 10 below are mean averages over the two rates of mesotrione, three replicates and the three assessment timings, and are compared to the efficacy of mesotrione in the absence of adjuvant and mesotrione in the presence of the well-known adjuvant Tween® 20.
# [2] = system: Digitaria sanguinalis (DIGSA); assay: Glasshouse weed test, mesotrione with adjuvants; conditions: Table 10, Example 7: mesotrione 60 or 120 g/ha; adjuvant 0.2% v/v; Tetronic 1107 in spray tank; mean over two rates, three replicates, 7, 14 and 20 days
# Protocol: as §1, §2
# [3] = system: Xanthium strumarium (XANST); assay: Glasshouse weed test, mesotrione with adjuvants; conditions: Table 10, Example 7: mesotrione 60 or 120 g/ha; adjuvant 0.2% v/v; Tetronic 1107 in spray tank; mean over two rates, three replicates, 7, 14 and 20 days
# Protocol: as §1, §2
# [4] = system: three weed species (XANST, BRAPL, DIGSA); assay: Glasshouse weed test, mesotrione with adjuvants, mean across species; conditions: mean over two rates
# Protocol: as §1, §2
# A second experiment was conducted to assess the efficacy of Finsolv® TN as an adjuvant in compositions of mesotrione. This was carried out as outlined above, with the following change: samples were assessed at 6, 14 and 20 days post application.
# The results shown in Table 11 below are mean averages over the two rates of mesotrione, three replicates, the three assessment timings, and the three weed species, and are compared to the efficacy of mesotrione in the absence of adjuvant and mesotrione in the presence of the well-known adjuvant Tween® 20.
# as §1, with “An” for “The aromatic ester Finsolv® TN (C12-C15 alkyl benzoate) was tested in a glasshouse against three weed species using the herbicide mesotrione. An”
# as §2, with “Brij®96. The results shown in Table 16 below are mean averages over the two rates of mesotrione, three replicates, three assessment timings and three weed species. The results are compared to the efficacy of mesotrione in the absence of an adjuvant and mesotrione in the presence of the commercially available adjuvant Brij®96.” for “Tween® 20.”
# An agrochemical composition was prepared containing 0.2% v/v of the adjuvant in a track sprayer and was applied at a volume of 200 liters per hectare. The adjuvant oils were emulsified using a small amount of the surfactant Pluronic® PE 10500, which was present in the composition at a concentration of 0.02% v/v. Mesotrione was applied at either 60 or 120 grams of pesticide per hectare on weeds which had been grown to the 1.3 or 1.4 leaf stage. The weed species were Xanthium strumarium (XANST), Brachiaria platyphylla (BRAPL), and Digitaria sanguinalis (DIGSA). […]
# [5] = system: four weed species (POLCO, BRAPL, COMBE, DIGSA); assay: Glasshouse weed test, mesotrione with adjuvants at several rates, mean across species; conditions: Table 25, Example 21: absence of adjuvant, mesotrione 60 or 120 g/ha, Tetronic 1107, mean over two rates, three replicates, 14 and 21 days
# Protocol: An agrochemical composition was prepared containing either 0.2, 0.1, 0.05 or 0.025% v/v of the adjuvant in a track sprayer and was applied at a volume of 200 liters per hectare. The commercial adjuvant Tween20® was applied at 0.2% v/v. Mesotrione was applied at either 60 or 120 grams of pesticide per hectare on weeds which had been grown to the 1.3 or 1.4 leaf stage. The commercially available surfactant Tetronic® 1107 was used in the spray tank at a concentration of 0.036 g/l alongside the lower concentration of mesotrione and at a concentration of 0.072 g/l at the higher concentration of mesotrione. The weed species were Polygonum convolvulus (POLCO) 13, Brachiaria platyphylla (BRAPL) 12-13, Comelina berghalensis (COMBE) 12 and Digitaria sanguinalis (DIGSA) 13.
# Each spray test was replicated three times. The efficacy of the herbicide was assessed visually and expressed as a percentage of the leaf area killed. Samples were assessed at time periods of 14 and 21 days following application. The results shown in Table 25 below are mean averages over the two rates of mesotrione, three replicates, four weed species and the two assessment timings. The adjuvants are compared to the efficacy of mesotrione in the absence of adjuvant and mesotrione in the presence of the well-known adjuvant Tween®20.
structure (smiles),measurement,setting,value
"CS(=O)(=O)c1ccc(C(=O)C2C(=O)CCCC2=O)c([N+](=O)[O-])c1 [Mesotrione, mesotrione]",Mean percentage kill BRAPL,[1],5.3 B %
same,Mean percentage kill DIGSA,[2],20.0 B %
same,Mean percentage kill XANST,[3],36.7 A %
same,"Mean percentage kill, Mean across species","[4]; Table 10, Example 7: mesotrione 60 or 120 g/ha, adjuvant 0.2% v/v, Tetronic 1107 in spray tank, three replicates, 7, 14 and 20 days",19.9 B %
same,"Mean percentage kill, Mean across species","[4]; Table 11, Example 7 second experiment: mesotrione 60 or 120 g/ha, adjuvant 0.2% v/v, three replicates, 6, 14 and 20 days, three weed species",33.0 B %
same,"Mean percentage kill, Mean across species","[4]; Table 16, Example 12: mesotrione 60 or 120 g/ha, adjuvant 0.2% v/v, Tetronic 1107 in spray tank, three replicates, 7, 14 and 20 days, three weed species",18.0 C %
same,"Mean percentage kill, Mean across species","[4]; Table 21, Example 17: mesotrione 60 or 120 g/ha, adjuvant 0.2% v/v emulsified with Pluronic PE 10500 0.02% v/v, Tetronic 1107, three replicates, 14 and 21 days, three weed species",19.9C %
same,"Mean percentage kill, Mean across species","[4]; Table 29, Example 26: mesotrione 60 or 120 g/ha, adjuvant 0.2% v/v, Tetronic 1107, three replicates, 14 and 21 days, three weed species",39.4C %
same,"Mean percentage kill, Mean across species","[4]; Table 35, Example 35: mesotrione 60 or 120 g/ha, adjuvant 0.2% v/v, Tetronic 1107, three replicates, 14 and 21 days, three weed species",33.8B %
same,"Mean percentage kill, Mean across species",[5],33.7D %
